Biological target: T1, P2X7 (Homo sapiens, UniProt Q99572)
T1 construct: endogenous in cells; host or cells: THP-1 human monocytic cell line
T1 sequence (Q99572 1-595): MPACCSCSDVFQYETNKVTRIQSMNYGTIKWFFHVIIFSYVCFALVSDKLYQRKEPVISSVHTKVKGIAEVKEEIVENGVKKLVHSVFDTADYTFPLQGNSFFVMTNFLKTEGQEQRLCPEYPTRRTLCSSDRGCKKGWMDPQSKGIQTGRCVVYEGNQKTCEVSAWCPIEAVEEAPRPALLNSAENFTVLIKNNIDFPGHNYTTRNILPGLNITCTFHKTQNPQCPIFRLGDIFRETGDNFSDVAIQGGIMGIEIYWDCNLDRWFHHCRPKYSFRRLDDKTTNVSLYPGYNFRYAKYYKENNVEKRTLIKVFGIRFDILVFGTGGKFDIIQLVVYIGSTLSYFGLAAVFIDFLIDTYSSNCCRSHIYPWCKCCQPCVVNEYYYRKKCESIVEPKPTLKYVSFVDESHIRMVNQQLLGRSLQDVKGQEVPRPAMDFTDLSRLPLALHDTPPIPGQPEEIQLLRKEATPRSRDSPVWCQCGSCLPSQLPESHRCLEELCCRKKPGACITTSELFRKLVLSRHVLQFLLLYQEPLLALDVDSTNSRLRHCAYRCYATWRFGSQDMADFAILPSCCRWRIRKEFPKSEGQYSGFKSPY
Assay: THP-1 YoPro uptake assay (BzATP-stimulated Yo-Pro-1 uptake)
Format: cell-based
Conditions: Table F-10, THP-1 cells, read-out: mean pIC50 values for P2X7 antagonism (converted)
Description: The human monocytic cell line THP-1 was grown as a suspension culture in RPMI medium supplemented with 10% fetal bovine serum, penicillin/streptomycin (50 units/mL), 2 mM L-glutamine, and 20 μM 2-mercaptoethanol. Cells were maintained at a density below 0.5 million per mL. On the day of the assay, cells were washed twice with assay buffer, and then resuspended at 2 million per mL in assay buffer containing 2 μM Yo-Pro-1 (Invitrogen). The assay buffer contained (in mM): 280 sucrose, 5 KCl, 10 glucose, 10 HEPES, 5 N-methyl-D-glucamine. The cells were added at 200 k/well into poly-D-lysine-coated black-walled 96-well plates (Biocoat, Becton-Dickinson). Test compounds were dissolved in DMSO, and then added at the test concentration to each well of the 96-well plate. Concentration dependence of block was determined by exposing each well of cells in duplicate rows of a 96-well plate to a serial dilution of test compound. The concentration series usually started at 10 μM with a three-fold decrement in concentration. The final DMSO concentration seen by the cells was less than 0.5%. Cells were incubated with test compounds for 30 minutes at 37° C. A background reading was taken using a Gemini SpectraMax with 490 nm excitation and 530 nm emission. […] After incubation for 60 minutes at 37° C., an endpoint read was taken in the SpectraMax plate reader. The amount of block of the response was determined by comparing the fluorescence intensity in each well to the average of control wells on each plate. The control wells contained either a known antagonist of P2X7 (positive controls) or a concentration of DMSO equal to that in the test wells. Data were analyzed using a nonlinear regression program (Origin, OriginLab, MA). Results are reported as the −log of the IC50 (pIC50).

| SMILES | IC50 |
| --- | --- |
| O=C(NCC(c1cnc(C(F)(F)F)nc1)N1CCOCC1)c1c(Cl)ccc2nc(N3CCN(CCO)CC3)ccc12 (centres unmarked) [Compound 455] | 25.7 nM |
| CC(CO)Nc1ccc2c(C(=O)NCC(c3cnc(C(F)(F)F)nc3)N3CCOCC3)c(Cl)ccc2n1 (centres unmarked) [Compound 456] | 7.24 nM |
| CCC(C)Nc1ccc2c(C(=O)NCC(c3cnc(C(F)(F)F)nc3)N3CCOCC3)c(Cl)ccc2n1 (centres unmarked) [Compound 457] | 0.955 nM |
| O=C(NCC(c1cnc(C(F)(F)F)nc1)N1CCOCC1)c1c(Cl)ccc2nc(N3CC(O)C3)ccc12 (centres unmarked) [Compound 458] | 3.02 nM |
| O=C(NCC(c1cnc(C(F)(F)F)nc1)N1CCOCC1)c1c(Cl)ccc2nc(N3CCCOCC3)ccc12 (centres unmarked) [Compound 459] | 2.63 nM |
| O=C(NCC(c1cnc(C(F)(F)F)nc1)N1CCOCC1)c1c(Cl)ccc2nc(N3C[C@@H]4CN[C@H]3C4)ccc12 (some centres unmarked) [Compound 460] | 8.91 nM |
| CC(=O)N1C[C@@H]2C[C@H]1N(c1ccc3c(C(=O)NCC(c4cnc(C(F)(F)F)nc4)N4CCOCC4)c(Cl)ccc3n1)C2 (some centres unmarked) [Compound 461] | 107 nM |
| CCN(CC)c1ccc2c(C(=O)NCC(c3cnc(C(F)(F)F)nc3)N3CCOCC3)c(Cl)ccc2n1 (centres unmarked) [Compound 462] | 9.12 nM |
| O=C(O)CCCNc1ccc2c(C(=O)NCC(c3cnc(C(F)(F)F)nc3)N3CCOCC3)c(Cl)ccc2n1 (centres unmarked) [Compound 463] | 380 nM |
| O=C(NCC(c1cnc(C(F)(F)F)nc1)N1CCOCC1)c1c(Cl)ccc2nc(N3CCC(C(=O)O)CC3)ccc12 (centres unmarked) [Compound 464] | 117 nM |
| O=C(NCC(c1cnc(C(F)(F)F)nc1)N1CCC(F)(F)CC1)c1c(Cl)ccc2nc(N3CC(O)C3)ccc12 (centres unmarked) [Compound 465] | 7.76 nM |
| O=C(NCC(c1cnc(C(F)(F)F)nc1)N1CCC(F)(F)CC1)c1c(Cl)ccc2nc(N3CCCOCC3)ccc12 (centres unmarked) [Compound 466] | 8.13 nM |
| CCC(C)Nc1ccc2c(C(=O)NCC(c3cnc(C(F)(F)F)nc3)N3CCC(F)(F)CC3)c(Cl)ccc2n1 (centres unmarked) [Compound 467] | 6.92 nM |
| O=C(NCC(c1cnc(C(F)(F)F)nc1)N1CCC(F)(F)CC1)c1c(Cl)ccc2nc(NC3CCOCC3)ccc12 (centres unmarked) [Compound 468] | 22.4 nM |
| O=C(NCC(c1cnc(C(F)(F)F)nc1)N1CCC(F)(F)CC1)c1c(Cl)ccc2nc(N3CC[C@@H](O)C3)ccc12 (some centres unmarked) [Compound 484] | 7.76 nM |
| O=C(NCC(c1cnc(C(F)(F)F)nc1)N1CCC(F)(F)CC1)c1c(Cl)ccc2nc(N3CCNCC3)ccc12 (centres unmarked) [Compound 485] | 2.24 nM |
| CC(C)Nc1ccc2c(C(=O)NCC(c3cnc(C(F)(F)F)nc3)N3CCC(F)(F)CC3)c(Cl)ccc2n1 (centres unmarked) [Compound 491] | 3.8 nM |
| CNc1ccc2c(C(=O)NCC(c3cnc(C(F)(F)F)nc3)N3CCC(F)(F)CC3)c(Cl)ccc2n1 (centres unmarked) [Compound 492] | 2.45 nM |
| O=C(NCC(c1cnc(C(F)(F)F)nc1)N1CCC(F)(F)CC1)c1c(Cl)ccc2nc(NC3CC3)ccc12 (centres unmarked) [Compound 493] | 8.71 nM |
| C[C@@H]1CN(c2ccc3c(C(=O)NCC(c4cnc(C(F)(F)F)nc4)N4CCC(F)(F)CC4)c(Cl)ccc3n2)C[C@H](C)O1 (some centres unmarked) [Compound 494] | 14.1 nM |
| O=C(NCC(c1cnc(C(F)(F)F)nc1)N1CCC(F)(F)CC1)c1c(Cl)ccc2nc(NCCO)ccc12 (centres unmarked) [Compound 495] | 7.41 nM |
| CC(C)Nc1ccc2c(C(=O)NCC(c3cnc(C(F)(F)F)nc3)N3CCOCC3)c(Cl)ccc2n1 (centres unmarked) [Compound 496] | 6.61 nM |
| O=C(NCC(c1cnc(C(F)(F)F)nc1)N1CCOCC1)c1c(Cl)ccc2nc(NCC3CC3)ccc12 (centres unmarked) [Compound 497] | 6.17 nM |
| O=C(NCC(c1cnc(C(F)(F)F)nc1)N1CCOCC1)c1c(Cl)ccc2nc(NCCO)ccc12 (centres unmarked) [Compound 498] | 9.12 nM |
| O=C(NCC(c1cnc(C(F)(F)F)nc1)N1CCOCC1)c1c(Cl)ccc2nc(N3CC[C@@H](O)C3)ccc12 (some centres unmarked) [Compound 499] | 20.9 nM |
| CNc1ccc2c(C(=O)NCC(c3cnc(C(F)(F)F)nc3)N3CCOCC3)c(Cl)ccc2n1 (centres unmarked) [Compound 500] | 10.2 nM |
| O=C(NCC(c1cnc(C(F)(F)F)nc1)N1CCOCC1)c1c(Cl)ccc2nc(NC3CC3)ccc12 (centres unmarked) [Compound 501] | 10.2 nM |

| SMILES | IC50 |
| --- | --- |
| O=C(NCC(c1cnc(C(F)(F)F)nc1)N1CCOCC1)c1c(Cl)ccc2nc(N3CCOCC3)ccc12 (centres unmarked) [Compound 502] | 13.8 nM |
| C[C@@H]1CN(c2ccc3c(C(=O)NCC(c4cnc(C(F)(F)F)nc4)N4CCOCC4)c(Cl)ccc3n2)C[C@H](C)O1 (some centres unmarked) [Compound 503] | 37.2 nM |
| O=C(NCC(c1cnc(C(F)(F)F)nc1)N1CCOCC1)c1c(Cl)ccc2nc(N3CCNCC3)ccc12 (centres unmarked) [Compound 504] | 6.92 nM |
| CN1CCN(c2ccc3c(C(=O)NCC(c4cnc(C(F)(F)F)nc4)N4CCOCC4)c(Cl)ccc3n2)CC1 (centres unmarked) [Compound 505] | 5.13 nM |
| O=C(NCC(c1cnc(C(F)(F)F)nc1)N1CCOCC1)c1c(Cl)ccc2nc(N3CC[C@H](O)C3)ccc12 (some centres unmarked) [Compound 506] | 18.2 nM |
| O=C(NCC(c1cnc(C(F)(F)F)nc1)N1CCC(F)(F)CC1)c1c(Cl)ccc2nc(NCC3CC3)ccc12 (centres unmarked) [Compound 507] | 13.5 nM |
| O=C(NCC(c1cnc(C(F)(F)F)nc1)N1CCC(F)(F)CC1)c1c(Cl)ccc2nc(NCC(O)CO)ccc12 (centres unmarked) [Compound 508] | 25.7 nM |
| O=C(NCC(c1cnc(C(F)(F)F)nc1)N1CCC(F)(F)CC1)c1c(Cl)ccc2nc(N3CC(O)(C(F)(F)F)C3)ccc12 (centres unmarked) [Compound 509] | 17.8 nM |
| O=C(NCC(c1cnc(C(F)(F)F)nc1)N1CCC(F)(F)CC1)c1c(Cl)ccc2nc(N3CC(CO)C3)ccc12 (centres unmarked) [Compound 510] | 3.47 nM |
| CN(CCN)c1ccc2c(C(=O)NCC(c3cnc(C(F)(F)F)nc3)N3CCC(F)(F)CC3)c(Cl)ccc2n1 (centres unmarked) [Compound 511] | 4.79 nM |
| NC1CN(c2ccc3c(C(=O)NCC(c4cnc(C(F)(F)F)nc4)N4CCOCC4)c(Cl)ccc3n2)C1 (centres unmarked) [Compound 512] | 5.37 nM |
| O=C(NCC(c1cnc(C(F)(F)F)nc1)N1CCC(F)(F)CC1)c1c(Cl)ccc2nc(NCCN3CCOCC3)ccc12 (centres unmarked) [Compound 513] | 5.13 nM |
| O=C(NCC(c1cnc(C(F)(F)F)nc1)N1CCOCC1)c1c(Cl)ccc2nc(NCCNCCO)ccc12 (centres unmarked) [Compound 514] | 7.59 nM |
| O=C(NCC(c1cnc(C(F)(F)F)nc1)N1CCC(F)(F)CC1)c1c(Cl)ccc2nc(N3CCC(c4n[nH]c(=O)[nH]4)CC3)ccc12 (centres unmarked) [Compound 515] | 5.62 nM |
| CC1(O)CCN(c2ccc3c(C(=O)NCC(c4cnc(C(F)(F)F)nc4)N4CCOCC4)c(Cl)ccc3n2)CC1 (centres unmarked) [Compound 516] | 9.77 nM |
| CNCCN(C)c1ccc2c(C(=O)NCC(c3cnc(C(F)(F)F)nc3)N3CCC(F)(F)CC3)c(Cl)ccc2n1 (centres unmarked) [Compound 517] | 8.51 nM |
| O=C(NCC(c1cnc(C(F)(F)F)nc1)N1CCC(F)(F)CC1)c1c(Cl)ccc2nc(N3CCC(n4cn[nH]c4=O)CC3)ccc12 (centres unmarked) [Compound 518] | 10.2 nM |
| O=C(NCC(c1cnc(C(F)(F)F)nc1)N1CCOCC1)c1c(Cl)ccc2nc(N3CCC4(CCCN4)C3)ccc12 (centres unmarked) [Compound 519] | 7.08 nM |
| O=C(NCC(c1cnc(C(F)(F)F)nc1)N1CCOCC1)c1c(Cl)ccc2nc(N3CCC4(CCCCN4)C3)ccc12 (centres unmarked) [Compound 520] | 9.55 nM |
| NCC1CCN(c2ccc3c(C(=O)NCC(c4cnc(C(F)(F)F)nc4)N4CCOCC4)c(Cl)ccc3n2)CC1 (centres unmarked) [Compound 521] | 13.8 nM |
| CNC1CN(c2ccc3c(C(=O)NCC(c4cnc(C(F)(F)F)nc4)N4CCOCC4)c(Cl)ccc3n2)C1 (centres unmarked) [Compound 522] | 24.5 nM |
| CN(CCN)c1ccc2c(C(=O)NCC(c3cnc(C(F)(F)F)nc3)N3CCOCC3)c(Cl)ccc2n1 (centres unmarked) [Compound 523] | 15.8 nM |
| O=C(NCC(c1cnc(C(F)(F)F)nc1)N1CCOCC1)c1c(Cl)ccc2nc(N3CC4(CNC4)C3)ccc12 (centres unmarked) [Compound 524] | 30.2 nM |
| O=C(NCC(c1cnc(C(F)(F)F)nc1)N1CCOCC1)c1c(Cl)ccc2nc(N3CC4COCC4C3)ccc12 (centres unmarked) [Compound 525] | 52.5 nM |
| O=C(NCC(c1cnc(C(F)(F)F)nc1)N1CCOCC1)c1c(Cl)ccc2nc(N3C[C@@H]4C[C@H]3CO4)ccc12 (some centres unmarked) [Compound 526] | 56.2 nM |
| O=C(NCC(c1cnc(C(F)(F)F)nc1)N1CCOCC1)c1c(Cl)ccc2nc(NCC3CCOCC3)ccc12 (centres unmarked) [Compound 527] | 77.6 nM |
